Drawing on patent US20060276478A1, “Pyrazolopyrimidines” (priority 2003, published 2006), this text covers chromatographic logP and logP for 10 molecules.

Counter-ions that a name gives are not always drawn.

The data set can be described thus: logP determination by HPLC (EEC directive 79/831 Annex V. A8). The data set is classed as physicochemical. The settings on record: gradient method. The method, then:
logP values are determined in accordance with EEC directive 79/831 Annex V. A8 by HPLC (gradient method, acetonitrile/0.1% aqueous phosphoric acid). Preparation of Starting Materials

Where [1] appears, read: HPLC (gradient, acetonitrile/0.1% aqueous phosphoric acid).

`CC(Nc1c(-c2ccc(F)cc2Cl)c(Cl)nc2c(C(=N)N)cnn12)C(C)(C)C` (single isomer, unassigned) [Example 3, 3-iminoamide-5-chloro-6-(2-chloro-4-fluorophenyl)-7-(3,3-dimethylbut-2-ylamino)pyrazolo[1,5-a]pyrimidine hydrochloride]: the chromatographic logP (as a rule, a lipophilicity value derived from retention on a column) under setting [1] stood at 2.72.

As to `CC(Nc1c(-c2ccc(F)cc2Cl)c(Cl)nc2c(C(=N)N)cnn12)C(C)(C)C` (single isomer, unassigned) [Example 4, hydrochloride], the logP (usually the decadic logarithm of the partition coefficient of the neutral form, usually between octanol and water) (acetonitrile/0.1% aqueous phosphoric acid, hydrochloride) came to 2.58.

As to `CC(Nc1c(-c2c(F)cccc2Cl)c(Cl)nc2c(C(N)=O)cnn12)C(C)(C)C` (stereo not shown) [Example 1, 3-amido-5-chloro-6-(2-chloro-6-fluorophenyl)-7-(3,3-dimethylbut-2-ylamino)pyrazolo[1,5-a]pyrimidine], the chromatographic logP under setting [1] amounted to 3.62.

As for `CC(Nc1c(-c2ccc(F)cc2Cl)c(Cl)nc2c(C(N)=NO)cnn12)C(C)(C)C` (stereo not shown) [Example 2, 3-hydroximinoamido-5-chloro-6-(2-chloro-4-fluorophenyl)-7-(3,3-dimethylbut-2-ylamino)pyrazolo[1,5-a]pyrimidine], the chromatographic logP under setting [1] turned out to be 2.55.

For the setting “acetonitrile/0.1% aqueous phosphoric acid”, `CC(Nc1c(-c2ccc(F)cc2Cl)c(Cl)nc2c(C=NNc3ccc([N+](=O)[O-])cc3[N+](=O)[O-])cnn12)C(C)(C)C` (stereo not shown) [Example 5, 3-(2,4-dinitriophenylhydraziminomethyl)-5-chloro-6-(2-chloro-4-fluorophenyl)-7-(3,3-dimethylbut-2-ylamino)pyrazolo[1,5-a]pyrimidine] came in with a chromatographic logP of 6.28.

With `CC(Nc1c(-c2c(F)cccc2Cl)c(Cl)nc2c(C#N)cnn12)C(C)(C)C` (stereo not shown) [Example 36, 3-cyano-5-chloro-6-(2-chloro-6-fluorophenyl)-7-(3,3-dimethylbut-2-ylamino)pyrazolo[1,5-a]pyrimidine], the chromatographic logP under setting [1] was found to be 4.59.

As for `CC(Nc1c(-c2ccc(F)cc2Cl)c(Cl)nc2c(C#N)cnn12)C(C)(C)C` (stereo not shown) [Example 37], under setting [1], the chromatographic logP stood at 4.78.

Consider `N#Cc1cnn2c(O)c(-c3c(F)cccc3Cl)c(O)nc12` [Example 39], for which, under setting [1], the chromatographic logP was 0.19.

Regarding `N#Cc1cnn2c(Cl)c(-c3ccc(F)cc3Cl)c(Cl)nc12` [Example 40, 3-cyano-5,7-dichloro-6-(2-chloro-4-fluorophenyl)pyrazolo[1,5-a]pyrimidine], the chromatographic logP under setting [1] is 3.49.

For `N#Cc1cnn2c(Cl)c(-c3c(F)cccc3Cl)c(Cl)nc12` [Example 41], under setting [1], the chromatographic logP stood at 3.31.
